Starred links: 1 amine or outer side, 2 acyl side, 3 side chain; linkers in the order of their positions; H or OH if unused. Non-standard residues stand in square brackets, D forms with d. Residues, ends and D or L forms follow the SMILES beside them. Groups on a side chain read outwards from the residue. *: point of attachment. PEG24 = NCCOCCOCCOCCOCCOCCOCCOCCOCCOCCOCCOCCOCCOCCOCCOCCOCCOCCOCCOCCOCCOCCOCCOCCOCCC(=O)O; X1 = O=C([C@H](Cc1ccc(-n2nnc3c2-c2ccccc2N([*:3])Cc2ccccc2-3)cc1)N[*:1])[*:2]; Pteroyl = Nc1nc2ncc(CNc3ccc(C(=O)*)cc3)nc2c(=O)[nH]1; Biotin = O=C1N[C@H]2[C@H](CS[C@H]2CCCCC(=O)*)N1; γGlu = O=C(O)[C@H](CCC(=O)[*:2])N[*:1]; βAla = NCCC(=O)O
Target: T1, folate receptor alpha (FRα) (Homo sapiens, UniProt P15328)
T1 construct: made in house
T1 sequence (P15328 25-257): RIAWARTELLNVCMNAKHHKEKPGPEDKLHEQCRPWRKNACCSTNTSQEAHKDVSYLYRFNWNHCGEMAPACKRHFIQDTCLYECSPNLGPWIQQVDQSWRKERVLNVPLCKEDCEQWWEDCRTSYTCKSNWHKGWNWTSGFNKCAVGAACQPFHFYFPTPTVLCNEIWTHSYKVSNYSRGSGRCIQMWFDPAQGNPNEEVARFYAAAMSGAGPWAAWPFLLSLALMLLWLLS
Test: Biolayer interferometry (BLI) binding of folate and folate-peptide conjugates to FRα
Details: for kon: pH 7.4, read-out: ka (association rate constant); for koff: pH 7.4, read-out: kd (dissociation rate constant)
Description: All steps performed for purification and refolding of FRα were carried out according to our previous report. However, some different reagents were used. […] The inclusion bodies were solubilized and purified with 8 M urea instead of 6 M guanidine HCl.
The measurement procedure has been reported previously. […] To eliminate errors from non-specific binding of the analyte (FRα) on the SA biosensor chips, reference data with the same concentrations of analyte were also measured.
The obtained binding data were analyzed using a 1:1 local analysis mode applied with association and dissociation step corrections by the BLItz Pro1.2 software (ForteBio). The reference measurements were subtracted during data analysis to determine ka, kd and KD.

[1] = BLI (BLItz), 25 °C, 10 mM PBS pH 7.4, 0.5% BSA, 0.01% Tween 20, ligand immobilized via biotin on streptavidin sensor, 1:1 local analysis, 'Folate' = folate-PEG8-biotin control

SMILES	fold faster association constant (DSEZKAY relative to SEZKA)	fold faster dissociation constant (DSEZKAY relative to SEZKA)	fold lower KD (DSEZKAY relative to SEZKA)	kon	koff	ka (association rate constant) [1]	kd (dissociation rate constant) [1]
C[C@H](NC(=O)[C@H](CCCCN)NC(=O)[C@H](Cc1ccc(-n2nnc3c2-c2ccccc2N(C(=O)CCNC(=O)CC[C@H](NC(=O)c2ccc(NCc4cnc5nc(N)[nH]c(=O)c5n4)cc2)C(=O)O)Cc2ccccc2-3)cc1)NC(=O)[C@H](CCC(=O)O)NC(=O)[C@H](CO)NC(=O)[C@H](CC(=O)O)NC(=O)CCOCCOCCOCCOCCOCCOCCOCCOCCOCCOCCOCCOCCOCCOCCOCCOCCOCCOCCOCCOCCOCCOCCOCCOCCNC(=O)CCCC[C@@H]1SC[C@@H]2NC(=O)N[C@@H]21)C(=O)N[C@@H](Cc1ccc(O)cc1)C(=O)O [DSEZKAY] ({Biotin-PEG24}-DSE[X1]([βAla-γGlu-Pteroyl])KAY-OH; C-terminus assumed)	12 fold	3 fold	4 fold	1.1e+06 M⁻¹ s⁻¹	0.000265 s⁻¹	–	–
Nc1nc(=O)c2nc(CNc3ccc(C(=O)N[C@@H](CCC(=O)O)C(=O)O)cc3)cnc2[nH]1 [Folate, reference compound]	–	–	–	–	–	6.74e+06 M⁻¹ s⁻¹	0.00769 s⁻¹
CC[C@H](C)[C@H](NC(=O)[C@H](Cc1ccc(-n2nnc3c2-c2ccccc2N(C(=O)CCNC(=O)CC[C@H](NC(=O)c2ccc(NCc4cnc5nc(N)[nH]c(=O)c5n4)cc2)C(=O)O)Cc2ccccc2-3)cc1)NC(=O)[C@H](Cc1ccccc1)NC(=O)CNC(=O)CCOCCOCCOCCOCCOCCOCCOCCOCCOCCOCCOCCOCCOCCOCCOCCOCCOCCOCCOCCOCCOCCOCCOCCOCCNC(=O)CCCC[C@@H]1SC[C@@H]2NC(=O)N[C@@H]21)C(=O)N[C@@H](CCC(N)=O)C(=O)O [GFZIQ] ({Biotin-PEG24}-GF[X1]([βAla-γGlu-Pteroyl])IQ-OH; C-terminus assumed)	–	–	–	411000 M⁻¹ s⁻¹	7.53e-05 s⁻¹	–	–
C[C@H](NC(=O)[C@H](CCCCN)NC(=O)[C@H](Cc1ccc(-n2nnc3c2-c2ccccc2N(C(=O)CCNC(=O)CC[C@H](NC(=O)c2ccc(NCc4cnc5nc(N)[nH]c(=O)c5n4)cc2)C(=O)O)Cc2ccccc2-3)cc1)NC(=O)[C@H](CCC(=O)O)NC(=O)[C@H](CO)NC(=O)CCOCCOCCOCCOCCOCCOCCOCCOCCOCCOCCOCCOCCOCCOCCOCCOCCOCCOCCOCCOCCOCCOCCOCCOCCNC(=O)CCCC[C@@H]1SC[C@@H]2NC(=O)N[C@@H]21)C(=O)O [SEZKA] ({Biotin-PEG24}-SE[X1]([βAla-γGlu-Pteroyl])KA-OH; C-terminus assumed)	–	–	–	89100 M⁻¹ s⁻¹	8.01e-05 s⁻¹	–	–
